Laboratory results taken from patent US8435929B2, “1-aminocyclopropane carboxylic acid as a fruit thinner” (Valent BioSciences Corporation, priority 2009, dated 2013).

What was measured:
PF-27 peaches = experiment: Field thinning study, ACC and ABA, fruit set of PF-27 peaches; format: in vivo, peach; settings: application at shuck split
Description: Application of ACC alone at shuck split reduced fruit set in a dose dependent manner (Table 10).

Summer Rich peaches = experiment: Field thinning study, fruit set, fruit weight and crop safety of Summer Rich peaches
Tatura 204 peaches = experiment: Field thinning study, fruit set of Tatura 204 peaches; format: in vivo, peach; settings: application at late shuck fall
Method: (§1) A series of field studies on stone fruit thinning were performed over several seasons, on different varieties and in various locations to determine the consistency of the thinning effect of ACC. Even without the application of a chemical thinning agent, crop load (number of fruit remaining divided by the number of flowers or fruit prior to application) was variable. Chemical thinning of stone fruit is variable and dependent on many factors including variety and environment. An acceptable chemical thinning agent is one that gives a substantial and relatively consistent reduction in crop load for a given dose over a wide range of trials.
ACC was sprayed on Tatura 204 peach trees at late shuck fall (Table 3).

Pink Lady apples = experiment: Field thinning study, fruit set of Pink Lady apples; format: in vivo, apple; settings: for Number of fruit per limb / Total number of fruit: 5 days after full bloom
Babygold #5 peach = experiment: Field thinning study, fruit set of Babygold #5 peach; format: in vivo
Garnet Beauty peaches = experiment: Field thinning study, fruit set of Garnet Beauty peaches; format: in vivo, peach; settings: application at petal fall
Method: as §1
Follow up studies confirmed that higher rates (500 or 750 ppm ACC) produced a moderate to heavy crop load on Babygold #5 at two locations (Tables 8 and 9) and Garnet Beauty (Table 10).

[1] = 500 ppm, application at petal fall, trial of Table 4
[2] = 500 ppm, application at petal fall, trial of Table 5 (other location)
[3] = 750 ppm, application at petal fall, trial of Table 4
[4] = 750 ppm, application at petal fall, trial of Table 5 (other location)

## NC1(C(=O)O)CC1 [ACC, 1-aminocyclopropane carboxylic acid]
PF-27 peaches; 100 ppm
  Crop load (percent) of treated trees compared to the untreated control: 81%
  Percent fruit set: 70%
PF-27 peaches; 300 ppm
  Crop load (percent) of treated trees compared to the untreated control: 67%
  Percent fruit set: 58%
PF-27 peaches; 1000 ppm
  Crop load (percent) of treated trees compared to the untreated control: 15%
  Percent fruit set: 13%
Summer Rich peaches; 500 ppm at 15 mm fruit stage
  Crop load (percent) of treated trees compared to the untreated control: 34%
  Crop safety on vegetation (0-4 scale): 3.0 0-4 scale
  Fruit weight at maturity: 144 g
  Percent fruit set: 24%
Summer Rich peaches; 500 ppm at petal fall
  Crop load (percent) of treated trees compared to the untreated control: 55%
  Crop safety on vegetation (0-4 scale): 0.5 0-4 scale
  Fruit weight at maturity: 140 g
  Percent fruit set: 39%
Summer Rich peaches; 750 ppm at 15 mm fruit stage
  Crop load (percent) of treated trees compared to the untreated control: 24%
  Crop safety on vegetation (0-4 scale): 3.5 0-4 scale
  Fruit weight at maturity: 169 g
  Percent fruit set: 17%
Summer Rich peaches; 750 ppm at petal fall
  Crop load (percent) of treated trees compared to the untreated control: 39%
  Crop safety on vegetation (0-4 scale): 0.8 0-4 scale
  Fruit weight at maturity: 151 g
  Percent fruit set: 28%
Summer Rich peaches; application at petal fall, stated for both varieties (Summer Rich and O'Henry)
  Leaf yellowing and leaf loss: minimized leaf yellowing and leaf loss
Tatura 204 peaches; 100 ppm
  Crop load (percent) of treated trees compared to the untreated control: 86%
  Percent fruit set: 65%
Tatura 204 peaches; 300 ppm
  Crop load (percent) of treated trees compared to the untreated control: 57%
  Percent fruit set: 43%
Tatura 204 peaches; 500 ppm
  Crop load (percent) of treated trees compared to the untreated control: 39%
  Percent fruit set: 30%
Tatura 204 peaches; 1000 ppm
  Crop load (percent) of treated trees compared to the untreated control: 36%
  Percent fruit set: 27%
Pink Lady apples; 100 ppm
  Number of fruit per limb: 64
  Total number of fruit: 175
Pink Lady apples; 300 ppm
  Number of fruit per limb: 62
  Total number of fruit: 165
Pink Lady apples; 500 ppm
  Number of fruit per limb: 61
  Total number of fruit: 169
Pink Lady apples; 1000 ppm
  Number of fruit per limb: 58
  Total number of fruit: 124
Pink Lady apples; highest rate tested (1000 ppm), early application (full bloom)
  Crop load (in words): reduced crop load slightly
Babygold #5 peach; 100 ppm, application at bloom
  Percent fruit set: 67%
Babygold #5 peach; 100 ppm, application at shuck split, 0.05% Regulaid adjuvant
  Percent fruit set: 85%
Babygold #5 peach; 300 ppm, application at shuck split, 0.05% Regulaid adjuvant
  Crop load (percent) of treated trees compared to the water control: 72%
Babygold #5 peach; 500 ppm, 10 mm fruitlet timing
  Percent Fruit Set: 6.7%
Babygold #5 peach; [1]
  Crop load (percent) of treated trees compared to the untreated control: 67%
  Percent fruit set: 32%
Babygold #5 peach; [2]
  Crop load (percent) of treated trees compared to the untreated control: 98%
  Percent fruit set: 42%
Babygold #5 peach; [3]
  Crop load (percent) of treated trees compared to the untreated control: 50%
  Percent fruit set: 24%
Babygold #5 peach; [4]
  Crop load (percent) of treated trees compared to the untreated control: 72%
  Percent fruit set: 31%
Babygold #5 peach; 1000 ppm, application at shuck split, 0.05% Regulaid adjuvant
  Crop load (percent) of treated trees compared to the water control: 14%
Garnet Beauty peaches; 500 ppm
  Crop load (percent) of treated trees compared to the untreated control: 82%
  Percent fruit set: 27%
Garnet Beauty peaches; 750 ppm
  Crop load (percent) of treated trees compared to the untreated control: 58%
  Percent fruit set: 19%
